Values of other authors in US6479068B1, “Therapeutic nutrient regimen for alleviating mucositis, stomatitis and cachexia in oncology patients” (Baxter International Inc., priority 2000, dated 2002).

Conditions: in vivo

[Se] [Selenium, selenium]
absorption: 50-100%
